Laboratory results as given in publication PMC8617691, “Distigmasterol-Modified Acylglycerols as New Structured Lipids—Synthesis, Identification and Cytotoxicity” (Molecules, 2021).
Read-outs that look alike come from different tables or passages of the source.

Assays:
[1] = MTT cytotoxicity test, small intestinal epithelial cells; assay type: cell-based, human; settings: human, FHs 74 Int normal small intestinal epithelial cells, FHs 74 Int cells, 100 µg/mL, 48 h, read-out: cell viability at the maximum concentration tested
Protocol: (§1) Distigmasterol-modified acylglycerols were examined for their cytotoxicity in normal human cells originating from the digestive system. The cells were treated for 48 h with increasing concentrations of dStigMAs, and cell proliferation, metabolic activity, and viability were assayed using the MTT test. The cytotoxic effects of the analyzed dStigMAs on CCD 841CoN colon mucosa cells, FHs 74 Int small intestine epithelial cells, and THLE-2 hepatocytes are presented in Figure 6.
(§2) The cytotoxicity of dStigMAs was analyzed at the maximum concentration of 100 µg/mL, which corresponded to doses of 83 µM of dStigC-PA, 81 µM of dStigC-OA, 76 µM of dStigS-PA, and 75 µM of dStigS-OA. The minimum doses tested were 10,000-fold lower. Cell viability and metabolic activity were assessed using the MTT test following the procedure described by Olejnik et al..
(§3) Figure 6 Effect of dStigMAs on (A) normal small intestinal epithelial cells (FHs 74 Int, ATCC® CCL241™), (B) normal colonic epithelial cells (CCD 841CoN, ATCC® CRL-179™), and (C) normal liver cells (THLE-2, ATCC® CRL-2706™).

[2] = tested on: FHs 74 Int small intestine epithelial cells; assay: as above; assay type: cell-based, human; settings: FHs 74 Int cells; for dose at which first cytotoxic symptoms were noted: 48 h treatment; for EC50: Homo sapiens, FHs74Int, read-out: median effective concentration (EC50); for EC50 / cytotoxicity (in words): 48 h; for cytotoxicity (in words): 100 µg/mL and lower concentrations
Protocol: as §1, §2, §3

[3] = MTT cytotoxicity test, colon mucosa cells; assay type: cell-based, human; settings: human, CCD 841CoN normal colonic epithelial cells, colon cells (CCD 841CoN), 100 µg/mL, read-out: cell proliferation and viability at the maximum dose
Protocol: as §1, §2, §3

[4] = MTT cytotoxicity test, hepatocytes; assay type: cell-based, human; settings: human, THLE-2 normal liver cells (hepatocytes), liver cells (THLE-2), 100 µg/mL, read-out: cell proliferation and viability at the maximum dose
Protocol: as §1, §2, §3

[5] = tested on: CCD 841CoN colon mucosa cells; assay: MTT cytotoxicity test, colon mucosa cells; assay type: cell-based, human; settings: CCD 841CoN cells, 100 µg/mL and lower concentrations, 48 h
Protocol: as §1, §2, §3

THLE-2 hepatocytes = assay: MTT cytotoxicity test, hepatocytes; assay type: cell-based, human; settings: THLE-2 cells, 100 µg/mL and lower concentrations, 48 h
Protocol: as §1, §2, §3

In the case of `CCCCCCCCC=CCCCCCCCC(=O)OCC(COC(=O)OC1CCC2(C)C(=CCC3C2CCC2(C)C(C(C)C=CC(CC)C(C)C)CCC32)C1)OC(=O)OC1CCC2(C)C(=CCC3C2CCC2(C)C(C(C)C=CC(CC)C(C)C)CCC32)C1` (stereo not shown) [dStigC-OA, 2,3-Distigmasterylcarbonoyl-1-Oleoyl-sn-Glycerol], the viability at 48 h, 100 µg/mL [1] is reported as 20.2%, the “dose at which first cytotoxic symptoms were noted” value [2] is reported as 0.1 µg/mL and the EC50 [2] is reported as 0.47 µg/mL. The EC50 ([2]; value in brackets) was 381 nM, the viability at 48 h, 100 µg/mL [3] was 59.4% and the viability at 48 h, 100 µg/mL [4] was 48.9%.
For `CCCCCCCCCCCCCCCC(=O)OCC(COC(=O)O[C@H]1CC[C@@]2(C)C(=CC[C@H]3[C@@H]4CC[C@H]([C@H](C)/C=C/[C@@H](CC)C(C)C)[C@@]4(C)CC[C@@H]32)C1)OC(=O)O[C@H]1CC[C@@]2(C)C(=CC[C@H]3[C@@H]4CC[C@H]([C@H](C)/C=C/[C@@H](CC)C(C)C)[C@@]4(C)CC[C@@H]32)C1` (stereo partly shown) [dStigC-PA, 1,2-Distigmasterylcarbonoyl-3-Palmitoyl-sn-Glycerol], the viability at 48 h, 100 µg/mL [1] was 17.5%, the “dose at which first cytotoxic symptoms were noted” value [2] was 0.1 µg/mL and the EC50 [2] was 0.32 µg/mL. For the same compound, the EC50 ([2]; value in brackets) was 266 nM, the viability at 48 h, 100 µg/mL [3] was 53.8% and the viability at 48 h, 100 µg/mL [4] was 56.3%.
With `CCCCCCCCC=CCCCCCCCC(=O)OCC(COC(=O)CCC(=O)OC1CCC2(C)C(=CCC3C2CCC2(C)C(C(C)C=CC(CC)C(C)C)CCC32)C1)OC(=O)CCC(=O)OC1CCC2(C)C(=CCC3C2CCC2(C)C(C(C)C=CC(CC)C(C)C)CCC32)C1` (stereo not shown) [dStigS-OA, 2,3-Distigmasterylsuccinoyl-1-Oleoyl-sn-Glycerol] the “cytotoxicity (in words)” value [2] was “no cytotoxic activity”, the “cytotoxicity (in words)” value [5] was “no cytotoxic activity” and the “cytotoxicity (in words)” value (THLE-2 hepatocytes) was “no cytotoxic activity”.
In the case of `CCCCCCCCCCCCCCCC(=O)OCC(COC(=O)CCC(=O)O[C@H]1CC[C@@]2(C)C(=CC[C@H]3[C@@H]4CC[C@H]([C@H](C)/C=C/[C@@H](CC)C(C)C)[C@@]4(C)CC[C@@H]32)C1)OC(=O)CCC(=O)O[C@H]1CC[C@@]2(C)C(=CC[C@H]3[C@@H]4CC[C@H]([C@H](C)/C=C/[C@@H](CC)C(C)C)[C@@]4(C)CC[C@@H]32)C1` (stereo partly shown) [dStigS-PA, 1,2-Distigmasterylsuccinoyl-3-Palmitoyl-sn-Glycerol], the “cytotoxicity (in words)” value [2] is reported as “no cytotoxic activity”, the “cytotoxicity (in words)” value [5] is reported as “no cytotoxic activity” and the “cytotoxicity (in words)” value (THLE-2 hepatocytes) is reported as “no cytotoxic activity”. It also gave a melting point of 91 to 93 °C.
